The source of these data is patent US10197574B2, “Analyte detection using near-infrared fluorophores” (Portland State University, priority 2011, dated 2019).

Each structure is given as a SMILES string.

Data set [1] can be described thus: Absorbance and fluorescence measured in methanol. The conditions noted are these: versus analogue with known regiochemistry (8 vs 22, 15a vs 20a). Format: physicochemical. The procedure:
Absorbance and fluorescence of compounds 22 and 8 also were measured in methanol. […] Thus, placement of the hydroxyl group proximal to the xanthene internal oxygen in compound 8 produced a bathochromic shift of 103 nm in the absorption spectrum. The transposition also imparted a corresponding shift in the excitation spectrum, and a large bathochromic shift of 128 nm in the fluorescence emission. Importantly, compound 8 absorbs and emits in the near-infrared with absorption and emission maxima of 701 nm and 816 nm, respectively.
Absorbance and fluorescence of compounds 20a and 15a also were measured in methanol. […] Thus, placement of the hydroxyl group proximal to the xanthene internal oxygen in compound 15a produced a bathochromic shift of 15 nm in the absorbance spectrum. The transposition also imparted a corresponding shift in the excitation spectrum, and a large bathochromic shift of 32 nm in the fluorescence emission.

Data set [2] can be described thus: Fluorescence emission spectra and Stokes shift of fluorophores (15 μM, 90% aqueous, 10% DMSO). Format: physicochemical. The procedure: Compounds 21 and 7 also were characterized by their fluorescence emission spectra. Fluorescence was measured using 15 μM solutions of each compound in a solution that was 90% aqueous, 10% DMSO. For compound 21, the longest wavelength emission observed from the dianion occurred near 680 nm at pH 9. For compound 7 (transposed), the longest wavelength emission observed from the monoanion occurred near 800 nm at pH 9.
The Stokes shift of each compound was measured and determined to be about 80 nm for the compound 21 dianion, and about 150 nm for the compound 7 (transposed) monoanion.
Compounds 22 and 8 also were characterized by their fluorescence emission spectra. Fluorescence was measured using 15 μM solutions of each compound in a solution that was 90% aqueous, 10% DMSO. For compound 22, the longest wavelength emission observed from the anion occurred near 690 nm at pH 9. For compound 8 (transposed), emission was not observed. Given the greater than 800 nm absorbance peak and the typically large Stokes shifts observed in this class of compounds, it is likely that the emission was beyond the working range of the instrument (>850 nm).
The Stokes shift of each compound was measured and determined to be about 80 nm for the compound 22 anion, and unmeasurable for the compound 8 (transposed) neutral form.
Compounds 20a and 15a also were characterized by their fluorescence emission spectra. Fluorescence was measured using 15 μM solutions of each compound in a solution that was 90% aqueous, 10% DMSO. For compound 20a, the longest wavelength emission observed from its corresponding anion, compound 20c, occurred near 640 nm in NaOH (pH 12). For compound 15a (with 3-1 transposition), the longest wavelength emission observed from the corresponding anion, compound 15h, occurred near 760 nm in NaOH.
The Stokes shift of each compound was measured and determined to be about 95 nm for the compound 20c anion, and about 165 nm for the compound 15h (transposed) anion. Thus, the 3-1 transposition enhanced the Stokes shift by about 70 nm.
Compound 15b also was characterized by its fluorescence emission spectrum and compared to C.SNARF-5. Fluorescence was measured using a 15 μM solution of compound 15b in a solution that was 90% aqueous, 10% DMSO. For C.SNARF-5, the longest wavelength emission observed from the anion occurred near 632 nm (Whitaker et al., Anal. Biochem. 1991, 194, 330-344). For compound 15b (transposed), the longest wavelength emission observed from the phenoxide occurred near 770 nm.
The Stokes shift of each compound was measured and determined to be about 82 nm for the C.SNARF-5 anion, and about 155 nm for the compound 15b (transposed) phenoxide. Thus, the 3-1 transposition enhanced the Stokes shift by about 73 nm.
Compound 15d also was characterized by its fluorescence emission spectrum and compared to SNARF-1. Fluorescence was measured using a 15 μM solution of compound 15d in a solution that was 90% aqueous, 10% DMSO. For SNARF-1, the longest wavelength emission observed from the anion occurred near 631 nm (Whitaker et al., Anal. Biochem. 1991, 194, 330-344). For compound 15d (transposed), the longest wavelength emission observed from the phenoxide occurred near 780 nm (NaOH, pH 12).
The Stokes shift of each compound was measured and determined to be about 58 nm for the SNARF-1 anion, and about 150 nm for the compound 15d (transposed) phenoxide. Thus, the 3-1 transposition enhanced the Stokes shift by about 92 nm.
Compounds 20b and 15g also were characterized by their fluorescence emission spectra. Fluorescence was measured using 15 μM solutions of each compound in a solution that was 90% aqueous, 10% DMSO. For compound 20b, the longest wavelength emission observed from the cation occurred near 640 nm at pH 7.4. For compound 15g (transposed), the longest wavelength emission observed from the cation occurred near 770 nm at pH 7.4. […]

Data set [3] in a line: UV-visible absorbance spectroscopy of fluorophores (15 μM, 90% aqueous, 10% DMSO). The conditions noted are these: for red-shift of absorbance maximum: 15a compared to 20a, anion 15h compared to anion 20c. Format: physicochemical. As to the method:
Compounds 20a and 15a were characterized by UV-visible spectroscopy (FIG. 25). Absorbance was measured using 15 μM solutions of each compound in a solution that was 90% aqueous, 10% DMSO. The peaks at 545 nm (light dashed line) and 595 nm (light solid line) represent the respective anions, compounds 20c and 15h, in NaOH (pH 12). The peaks at 515 nm (heavy dashed line) and 525 nm (heavy solid line) represent the predominantly neutral forms of compounds 20a and 15a at pH 6, respectively.
Although the red shift of compound 15a in methanol was modest, its corresponding anion (compound 15h) in DMSO:aqueous base 1:9 was shifted more substantially by 50 nm to […] as compared to anion 20c under the same conditions. Its fluorescence emission was shifted by an even larger […], emitting at 760 nm. The comparatively large shift of the anion 15h supports a polar effect as playing a key role in modulating the HOMO-LUMO gap in the compound. […]
Known seminaphthorhodafluors display long wavelength absorption at high pH; however, the free amino compound in this series respond to low pH with increased long wavelength absorption.

The nature of the next data set: Emission in blood. Also noted: species or system porcine. As to the method: Compound 15d (Table 1) was diluted to 40 μM in 50% DMSO:50% 25 mM pH 9 phosphate buffer. […] Emission remained stable for at least 1 hour. The absorption profile matches the output of a laser pointer (635-670 nm; max output <5 mW). NIR emission (80 μM) was clearly visible with a digital camera (Kodak EasyShare Z740) in a NIR photograph taken with 8 sec. exposure collected through a Hoya R72 camera filter (% T<1% at <690 nm, % T>90% at >750 nm).
Its absorbance and fluorescence spectra faded over time, but remained visible after about an hour (although with only 10-20% of its original emission intensity). Molecular modeling has shown favorable structural interactions of compounds 5f and 24 with glutathione (see, e.g., FIG. 20—compound 24).
Spectral behavior of compound 15g (type [c] annulated seminaphthorhodamine methyl ester (free amine) with the 3-1 transposition) was investigated to determine its potential for sensing use in whole blood. Solutions of compound 15g in 10% or 90% by volume whole blood (porcine blood in Na-EDTA, Lampire Biological Laboratories) were investigated in a 3×3 mm cell. […] Throughout much of the spectrum, the dye produces a greater absorbance than the blood alone. The change in absorbance between the two spectra provides the effective absorbance of the dye. […]

The nature of data set [4]: Absorbance and emission in 0.1M NaOH. Format: physicochemical. An excerpt: The absorbance and fluorescence spectra of the fluorophore typically are pH dependent. For example, the absorbance maximum for one ester derivative (compound 15d) in 0.1M NaOH is 620 nm and the emission maximum in same solvent is 770 nm. The Stokes shift in this solvent is 150 nm (3142 cm^−1).

Data set [5] can be described thus: Spectral properties of rhodamine bis-boronic acids and precursors (Table 5). Format: physicochemical. An excerpt:
Excitation and emission spectra were normalized to their absorbance at the excitation wavelength, and are proportional to quantum yield.

Where [6] appears, read: DMSO:buffer 1:1, pH 7.4 phosphate buffer 12.5 mM.
Setting [7] is: DMSO:buffer 1:9, pH 7.4 phosphate buffer 12.5 mM.

In the case of `COC(=O)c1ccccc1-c1c2ccc3cccc(O)c3c2oc2c1ccc1cccc(=O)c12` [Compound 8], in data set [1], the “bathochromic shift in the absorption spectrum” value was determined as 103 nm and the “bathochromic shift in the fluorescence emission” value is on record as 128 nm. In data set [2] (15 μM, 90% aqueous, 10% DMSO, instrument range to 850 nm), the fluorescence emission entry is on record as “not observed”.
Turning to `O=C1OC2(c3ccccc31)c1ccc3cccc(O)c3c1Oc1c2ccc2cccc(O)c12` [Compound 7], the form in solution entry in data set [3] (1:9 DMSO:buffer below physiological pH of 7.4) is listed as “colorless lactone”. In data set [2] (NaOH (pH 12), anion/dianion/phenoxide, 15 μM, 90% aqueous, 10% DMSO), the longest wavelength emission entry is listed as “either too weak to be detected or, more likely, beyond the working range of the instrument”.
Consider `COC(=O)c1ccccc1-c1c2ccc(=O)cc-2oc2c1ccc1cccc(O)c12` [Compound 15h], for which the “red-shift of absorbance maximum” value in data set [3] is given as 50 nm. In addition, in data set [3] (anion, DMSO:aqueous base 1:9), the absorbance maximum amounted to 599 nm. Besides, the “bathochromic shift in emission wavelength” value in data set [2] (anion 15h compared to anion 20c) is listed as 130 nm. Besides, the Stokes shift result is recorded as “about 165 nm” in data set [2] (anion/phenoxide in NaOH (pH 12)) and 160 nm in data set [2] (anionic form, NIR emission at 760 nm). Further, the fluorescence emission in data set [2] (anion, DMSO:aqueous base 1:9) was determined as 760 nm.
For the molecule `COC(=O)c1ccccc1-c1c2ccc(=[N+](C)C)cc-2oc2c1ccc1cccc(O)c12` [Compound 15d], the “time emission remained stable” value in “Emission in blood” (5% whole blood) was “at least 1 hour”. In data set [4], this molecule had an absorbance maximum of 620 nm and an emission maximum of 770 nm.
In the case of `N=c1ccc2c(ccc3c(-c4ccccc4C(=O)O)c4ccc(N)cc4oc32)c1` [Compound 50], in data set [5] (DMSO buffer 1:9), the quantum yield was found to be 19%, the “red shift of maximum absorption versus rhodamine 110” value was found to be 40 nm and the “red shift of maximum emission versus rhodamine 110” value is listed as about 100 nm. Moreover, in data set [5] (setting [6]), the Abs is on record as 542 nm, the Brightness turned out to be 6298, the Em was 630 nm and the Ex is recorded as 542 nm. In data set [5] (setting [6]), this molecule showed a Q.Y. of 0.30 and a ε of 21064 M⁻¹ cm⁻¹. Also, in data set [5] (setting [7]), the Abs stood at 535 nm, the Brightness was determined as 8083, the Em is given as 628 nm and the Ex was determined as 534 nm. In data set [5] (setting [7]), this molecule yielded a Q.Y. of 0.19 and a ε of 42701 M⁻¹ cm⁻¹.
On to `COC(=O)c1ccccc1-c1c2ccc(=O)cc-2oc2c1ccc1cccc(O)c12` [Compound 15a], for which, in data set [1], the “bathochromic shift in the absorption spectrum” value came out at 15 nm and the “bathochromic shift in the fluorescence emission” value came out at 32 nm. Also, the “red-shift of absorbance maximum” value in data set [3] came out at 15 nm.
`COC(=O)c1ccccc1-c1c2ccc(=O)cc-2oc2c1ccc1cccc(N)c12` [Compound 15e]: in data set [3] (low pH), the “pH titration of absorption” value is “increased long wavelength absorption and decreased short wavelength absorption at low pH”.
For the molecule `Cc1ccc(C)c(-c2c3ccc4cccc(O)c4c3oc3c2ccc2cccc(=O)c23)c1` [Compound 4a], the “absorption in the blood solution” value in the data set “Emission in blood” (blood solution) was “clearly visible and remained stable over extended periods of time”.
